Test results: PMC10924921, “Mi-2β promotes immune evasion in melanoma by activating EZH2 methylation” (Nature Communications, 2024)

What was measured:
Assay in all cases: biochemical
Parameters in all cases: KINOMEscan active-site competition binding panel (468 kinase assays), per cent of control at 1000 nM
Conditions in all cases: KINOMEscan per cent of control (binding competition); read-out: Percent Control
[1] = target: HIPK1 (Homo sapiens, UniProt Q86Z02)
Text: (§1) Figure S7 / Percent Control

[2] = target: CSF1R (Homo sapiens, UniProt P07333)
Text: as §1

[3] = target: PRKD1 (Homo sapiens, UniProt Q15139)
Sequence of PRKD1 (Q15139 whole entry): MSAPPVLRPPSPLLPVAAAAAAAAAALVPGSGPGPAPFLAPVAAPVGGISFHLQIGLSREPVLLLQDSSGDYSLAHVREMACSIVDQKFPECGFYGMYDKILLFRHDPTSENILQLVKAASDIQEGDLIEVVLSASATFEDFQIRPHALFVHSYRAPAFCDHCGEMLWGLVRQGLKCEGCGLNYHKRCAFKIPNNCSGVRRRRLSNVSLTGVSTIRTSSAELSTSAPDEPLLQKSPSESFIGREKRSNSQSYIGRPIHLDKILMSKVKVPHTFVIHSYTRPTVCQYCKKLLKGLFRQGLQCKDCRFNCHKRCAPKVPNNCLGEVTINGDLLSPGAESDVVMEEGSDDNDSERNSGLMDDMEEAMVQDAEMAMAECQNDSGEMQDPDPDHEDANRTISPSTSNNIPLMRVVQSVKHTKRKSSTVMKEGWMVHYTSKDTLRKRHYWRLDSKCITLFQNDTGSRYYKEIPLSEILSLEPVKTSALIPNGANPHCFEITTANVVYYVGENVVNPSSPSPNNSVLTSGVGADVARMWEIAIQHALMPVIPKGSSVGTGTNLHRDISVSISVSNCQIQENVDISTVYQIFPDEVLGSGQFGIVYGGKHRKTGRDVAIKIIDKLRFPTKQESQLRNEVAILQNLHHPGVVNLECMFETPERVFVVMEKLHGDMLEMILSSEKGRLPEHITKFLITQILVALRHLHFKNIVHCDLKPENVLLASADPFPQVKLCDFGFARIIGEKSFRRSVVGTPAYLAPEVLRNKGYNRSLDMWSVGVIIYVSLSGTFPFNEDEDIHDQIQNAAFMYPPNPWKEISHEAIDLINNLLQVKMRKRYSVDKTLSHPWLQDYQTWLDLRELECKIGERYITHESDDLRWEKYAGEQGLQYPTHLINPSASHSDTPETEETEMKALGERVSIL
Text: as §1

[4] = target: NLK (Homo sapiens, UniProt Q9UBE8)
Text: as §1

[5] = target: CHEK2 (Homo sapiens, UniProt O96017)
Text: as §1

[6] = target: T1, DCAMKL1 (Homo sapiens, UniProt O15075)
T1 construct: gene DCLK1
Text: as §1

[7] = target: CAMK2D (Homo sapiens, UniProt Q13557)
Text: as §1

[8] = target: T2, MST1 (Homo sapiens, UniProt Q13043)
T2 construct: gene STK4
Text: as §1

[9] = target: STK35 (Homo sapiens, UniProt Q8TDR2)
Text: as §1

[10] = target: BRSK1 (Homo sapiens, UniProt Q8TDC3)
Text: as §1

[11] = target: CAMK1D (Homo sapiens, UniProt Q8IU85)
Sequence of CAMK1D (Q8IU85 whole entry): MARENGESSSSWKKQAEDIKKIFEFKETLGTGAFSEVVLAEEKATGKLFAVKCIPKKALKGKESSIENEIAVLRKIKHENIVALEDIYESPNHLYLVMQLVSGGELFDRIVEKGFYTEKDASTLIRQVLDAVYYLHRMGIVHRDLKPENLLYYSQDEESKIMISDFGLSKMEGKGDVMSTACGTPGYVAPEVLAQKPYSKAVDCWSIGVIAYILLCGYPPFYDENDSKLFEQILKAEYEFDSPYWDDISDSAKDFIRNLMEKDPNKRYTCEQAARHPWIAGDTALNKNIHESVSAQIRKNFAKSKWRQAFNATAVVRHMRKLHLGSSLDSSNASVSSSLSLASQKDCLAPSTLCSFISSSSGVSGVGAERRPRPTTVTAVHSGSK
Text: as §1

[12] = target: T3, ABL1(T315I)-nonphosphorylated (Homo sapiens, UniProt P00519, T315I)
T3 construct: nonphosphorylated
Text: as §1

[13] = target: LIMK2 (Homo sapiens, UniProt P53671)
Text: as §1

[14] = target: AKT3 (Homo sapiens, UniProt Q9Y243)
Sequence of AKT3 (Q9Y243 whole entry): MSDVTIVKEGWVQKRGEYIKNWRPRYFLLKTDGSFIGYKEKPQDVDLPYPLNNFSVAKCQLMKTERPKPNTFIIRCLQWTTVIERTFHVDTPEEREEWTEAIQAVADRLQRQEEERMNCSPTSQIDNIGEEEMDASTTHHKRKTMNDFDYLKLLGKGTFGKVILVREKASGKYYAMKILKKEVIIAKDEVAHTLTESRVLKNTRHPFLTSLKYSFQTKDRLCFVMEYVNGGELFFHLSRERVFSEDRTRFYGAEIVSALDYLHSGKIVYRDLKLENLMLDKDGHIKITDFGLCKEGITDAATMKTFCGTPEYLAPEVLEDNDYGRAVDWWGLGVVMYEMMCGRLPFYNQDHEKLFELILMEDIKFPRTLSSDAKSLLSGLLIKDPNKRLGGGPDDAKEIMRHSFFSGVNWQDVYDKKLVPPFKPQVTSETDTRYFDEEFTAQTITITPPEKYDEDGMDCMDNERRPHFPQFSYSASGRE
Text: as §1

[15] = target: NEK6 (Homo sapiens, UniProt Q9HC98)
Sequence of NEK6 (Q9HC98 whole entry): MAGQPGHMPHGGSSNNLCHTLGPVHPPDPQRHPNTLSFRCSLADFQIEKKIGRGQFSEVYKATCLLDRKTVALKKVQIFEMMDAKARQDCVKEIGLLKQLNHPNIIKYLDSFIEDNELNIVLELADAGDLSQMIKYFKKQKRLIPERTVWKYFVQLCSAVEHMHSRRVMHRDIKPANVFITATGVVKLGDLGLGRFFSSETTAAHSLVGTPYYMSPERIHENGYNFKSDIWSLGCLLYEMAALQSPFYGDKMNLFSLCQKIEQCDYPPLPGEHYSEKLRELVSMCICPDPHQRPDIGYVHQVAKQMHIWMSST
Text: as §1

[16] = target: EGFR(G719S) (Homo sapiens, UniProt P00533, G719S)
Sequence of EGFR(G719S) (P00533 whole entry G719S): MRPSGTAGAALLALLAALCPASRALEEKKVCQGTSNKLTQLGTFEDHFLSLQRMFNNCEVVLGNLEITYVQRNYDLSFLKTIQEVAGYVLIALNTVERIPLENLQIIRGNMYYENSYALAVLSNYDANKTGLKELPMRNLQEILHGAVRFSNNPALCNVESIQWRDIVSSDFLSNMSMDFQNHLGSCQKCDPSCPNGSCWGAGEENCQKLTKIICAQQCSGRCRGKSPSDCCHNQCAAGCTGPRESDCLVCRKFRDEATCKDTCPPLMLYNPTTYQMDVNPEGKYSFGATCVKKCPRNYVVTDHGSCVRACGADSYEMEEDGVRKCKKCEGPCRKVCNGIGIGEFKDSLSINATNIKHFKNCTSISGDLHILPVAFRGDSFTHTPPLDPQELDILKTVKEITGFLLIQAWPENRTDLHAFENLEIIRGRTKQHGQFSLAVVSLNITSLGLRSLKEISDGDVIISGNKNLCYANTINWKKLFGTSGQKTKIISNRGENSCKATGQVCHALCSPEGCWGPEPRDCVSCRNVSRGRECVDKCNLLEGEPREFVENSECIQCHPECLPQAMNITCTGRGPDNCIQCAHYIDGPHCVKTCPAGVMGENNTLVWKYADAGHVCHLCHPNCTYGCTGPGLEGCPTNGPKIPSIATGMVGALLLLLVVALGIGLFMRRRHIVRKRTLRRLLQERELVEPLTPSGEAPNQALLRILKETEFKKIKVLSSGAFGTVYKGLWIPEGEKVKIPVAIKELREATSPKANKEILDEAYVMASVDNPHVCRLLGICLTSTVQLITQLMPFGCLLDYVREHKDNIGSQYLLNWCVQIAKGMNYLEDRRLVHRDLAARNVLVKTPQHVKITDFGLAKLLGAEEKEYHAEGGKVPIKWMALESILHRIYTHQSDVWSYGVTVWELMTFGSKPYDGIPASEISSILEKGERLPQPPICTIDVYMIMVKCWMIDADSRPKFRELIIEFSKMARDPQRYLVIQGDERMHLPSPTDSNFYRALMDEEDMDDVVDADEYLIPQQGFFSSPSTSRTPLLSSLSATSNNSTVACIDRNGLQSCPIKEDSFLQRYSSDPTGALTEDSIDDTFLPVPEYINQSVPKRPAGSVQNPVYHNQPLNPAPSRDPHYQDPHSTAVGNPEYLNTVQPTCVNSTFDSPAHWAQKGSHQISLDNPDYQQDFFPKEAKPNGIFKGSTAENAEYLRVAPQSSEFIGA
Text: as §1

[17] = target: TAOK3 (Homo sapiens, UniProt Q9H2K8)
Sequence of TAOK3 (Q9H2K8 whole entry): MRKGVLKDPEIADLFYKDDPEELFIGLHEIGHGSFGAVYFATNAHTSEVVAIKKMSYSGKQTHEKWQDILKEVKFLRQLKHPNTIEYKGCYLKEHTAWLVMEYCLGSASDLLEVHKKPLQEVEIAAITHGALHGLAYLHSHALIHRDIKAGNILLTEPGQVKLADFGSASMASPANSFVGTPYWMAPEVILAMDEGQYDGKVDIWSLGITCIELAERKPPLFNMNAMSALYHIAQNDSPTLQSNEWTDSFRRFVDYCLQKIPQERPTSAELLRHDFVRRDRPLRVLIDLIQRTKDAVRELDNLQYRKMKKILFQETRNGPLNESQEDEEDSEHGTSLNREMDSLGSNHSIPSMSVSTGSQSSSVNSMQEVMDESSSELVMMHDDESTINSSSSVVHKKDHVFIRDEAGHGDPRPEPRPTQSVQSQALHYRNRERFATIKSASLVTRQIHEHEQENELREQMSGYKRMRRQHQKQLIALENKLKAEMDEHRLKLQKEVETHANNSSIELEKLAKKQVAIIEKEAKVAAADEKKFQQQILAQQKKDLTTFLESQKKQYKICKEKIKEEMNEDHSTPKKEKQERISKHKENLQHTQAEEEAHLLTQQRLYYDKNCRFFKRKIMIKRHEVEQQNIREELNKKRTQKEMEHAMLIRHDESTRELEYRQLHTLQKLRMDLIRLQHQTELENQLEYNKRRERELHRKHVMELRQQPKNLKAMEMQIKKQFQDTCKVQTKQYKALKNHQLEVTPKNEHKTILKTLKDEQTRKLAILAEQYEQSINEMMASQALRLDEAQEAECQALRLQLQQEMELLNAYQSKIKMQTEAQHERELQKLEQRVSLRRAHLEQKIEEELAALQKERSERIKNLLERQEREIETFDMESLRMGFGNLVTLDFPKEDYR
Text: as §1

[18] = target: FGFR3 (Homo sapiens, UniProt P22607)
Sequence of FGFR3 (P22607 whole entry): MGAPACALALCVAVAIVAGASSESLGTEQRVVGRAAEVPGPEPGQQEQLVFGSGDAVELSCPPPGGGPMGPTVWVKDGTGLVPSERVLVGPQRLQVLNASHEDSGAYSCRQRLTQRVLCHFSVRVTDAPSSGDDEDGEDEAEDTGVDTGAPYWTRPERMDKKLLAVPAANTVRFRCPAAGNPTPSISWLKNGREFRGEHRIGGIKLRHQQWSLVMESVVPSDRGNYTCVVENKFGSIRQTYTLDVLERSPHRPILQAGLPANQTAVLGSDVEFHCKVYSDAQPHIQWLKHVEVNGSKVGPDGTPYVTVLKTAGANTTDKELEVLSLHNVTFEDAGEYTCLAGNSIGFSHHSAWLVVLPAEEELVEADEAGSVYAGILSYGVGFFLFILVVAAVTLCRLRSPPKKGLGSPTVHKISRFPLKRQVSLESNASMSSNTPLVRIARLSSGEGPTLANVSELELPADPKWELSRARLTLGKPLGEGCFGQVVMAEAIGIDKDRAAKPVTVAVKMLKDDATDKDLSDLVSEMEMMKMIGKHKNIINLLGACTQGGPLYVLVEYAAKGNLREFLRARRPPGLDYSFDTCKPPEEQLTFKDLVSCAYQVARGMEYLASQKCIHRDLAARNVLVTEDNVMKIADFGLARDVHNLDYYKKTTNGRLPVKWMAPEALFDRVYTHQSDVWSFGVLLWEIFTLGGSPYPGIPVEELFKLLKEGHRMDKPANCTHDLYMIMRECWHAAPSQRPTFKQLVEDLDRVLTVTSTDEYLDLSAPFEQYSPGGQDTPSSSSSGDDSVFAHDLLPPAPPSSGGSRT
Text: as §1

[19] = target: EPHA5 (Homo sapiens, UniProt P54756)
Text: as §1

[20] = target: TNK2 (Homo sapiens, UniProt Q07912)
Text: as §1

[21] = target: T4, JAK3(JH1domain-catalytic) (Homo sapiens, UniProt P52333)
T4 construct: JH1domain-catalytic
Text: as §1

[22] = target: T5, MEK1 (Homo sapiens, UniProt Q02750)
T5 construct: gene MAP2K1
Text: as §1

[23] = target: NEK2 (Homo sapiens, UniProt P51955)
Text: as §1

[24] = target: WNK4 (Homo sapiens, UniProt Q96J92)
Text: as §1

[25] = target: MYLK (Homo sapiens, UniProt Q15746)
Text: as §1

Structure (SMILES): Cn1c(=O)[nH]c2ccc(-c3cccc(C(=O)NC4CCn5ccnc5C4)c3)cc21 (stereo not shown) [Z36-MP5]
- remaining binding at 1 µM [1]: 100%
- remaining binding at 1 µM [2]: 91%
- remaining binding at 1 µM [3]: 100%
- remaining binding at 1 µM [4]: 59%
- remaining binding at 1 µM [5]: 58%
- remaining binding at 1 µM [6]: 53%
- remaining binding at 1 µM [7]: 89%
- remaining binding at 1 µM [8]: 84%
- remaining binding at 1 µM [9]: 81%
- remaining binding at 1 µM [10]: 92%
- remaining binding at 1 µM [11]: 61%
- remaining binding at 1 µM [12]: 56%
- remaining binding at 1 µM [13]: 96%
- remaining binding at 1 µM [14]: 91%
- remaining binding at 1 µM [15]: 83%
- remaining binding at 1 µM [16]: 85%
- remaining binding at 1 µM [17]: 54%
- remaining binding at 1 µM [18]: 84%
- remaining binding at 1 µM [19]: 86%
- remaining binding at 1 µM [20]: 41%
- remaining binding at 1 µM [21]: 70%
- remaining binding at 1 µM [22]: 63%
- remaining binding at 1 µM [23]: 100%
- remaining binding at 1 µM [24]: 81%
- remaining binding at 1 µM [25]: 81%
